Reference: patent US20250154126A1, “CRYSTALLINE FORM OF SULFUR-CONTAINING ISOINDOLINE DERIVATIVE” (JIANGSU HENGRUI PHARMACEUTICALS CO., LTD., priority 2022, published 2025)

Assays:
Assay type in all cases: physicochemical
[1] = Hygroscopicity study of crystal forms (dynamic vapour sorption, 25° C.); details: for Crystal form after hygroscopicity test: two cycles
From the text: According to the “9103 Guideline for Hygroscopicity for Pharmaceuticals” in Part IV of the 2015 edition of the Chinese Pharmacopoeia, descriptions of hygroscopic characteristics and definitions of hygroscopic weight gain are as follows; • Deliquescent: Absorbs sufficient moisture to form a liquid; • Extremely hygroscopic: Hygroscopic weight gain is no less than 15%; • Hygroscopic: Hygroscopic weight gain is less than 15% but no less than 2%; • Slightly hygroscopic: Hygroscopic weight gain is less than 2% but no less than 0.2%; • Non-hygroscopic or nearly non-hygroscopic: Hygroscopic weight gain is less than 0.2%.
Compound of Formula (I) (Oct. 15, 2021, Nanjing) 03881 Using the Surface Measurement Systems advantage 2, at a temperature of 25° C., and starting at a humidity of 50%, the humidity range was examined from […] to 95%, with increments of 10%. The criterion for evaluation was that the mass change dM/dT at each gradient was less than 0.002%, TMAX was 360 min, and the process was cycled twice.

[2] = Influencing factor stability of crystal forms (light, high temperature, high humidity, 30 days); details: for change in purity under 60° C. and light: 60° C. and light (4500 Lux); for change in purity under 60° C. and light / physicochemical stability under high humidity: open; for physicochemical stability under high humidity: high humidity conditions of 75% and 92.5%; for crystal form after influencing factor experiments: light, high temperature, high humidity
Method: Each crystal form was spread out in an open exposure setup, and the stability of the samples under conditions of light (4500 Lux), high temperature (40° C., 60° C.), and high humidity (RH 75 RH 92.5%) was examined separately. The sampling inspection period was 30 days.

[3] = Long-term/accelerated stability of crystal forms (25° C. 60% RH and 40° C. 75% RH); details: for physical and chemical stability, long-term accelerated conditions: 25° C. 60% RH and 40° C. 75% RH, six months
Method: The crystal forms D, E, Q, and U of the compound of formula (I) were respectively placed under conditions of 25° C. with 60% RH and 40° C. with 75% RH to evaluate their stability.

[4] = 92.5% RH, 9 days, open exposure
[5] = 92.5% RH, 15 days, open exposure
[6] = 92.5% RH, 30 days, open exposure
[7] = light 4500 Lux, 9 days, open exposure
[8] = light 4500 Lux, 15 days, open exposure
[9] = light 4500 Lux, 30 days, open exposure

Q: What does the source list for `N#Cc1ccc(N2CCC(Sc3ccc(COc4cccc5c4CN([C@H]4CCC(=O)NC4=O)C5=O)cn3)CC2)c(F)c1` [Crystal form D, (S)-4-(4-((5-(((2-(2,6-dioxopiperidin-3-yl)-1-oxoisoindolin-4-yl)oxy)methyl)pyridin-2-yl)thio)piperidin-1-yl)-3-fluorobenzonitrile]?
A: Hygroscopic weight change 0.0% RH-95.0% RH [1]: 2.24%; Hygroscopic weight change 20% RH-80% RH [1]: 1.26%; Hygroscopicity class (20% RH-80% RH) [1]: (slightly hygroscopic); Crystal form after hygroscopicity test [1]: Untransformed; Color and character ([2]; 40° C., 9 days, open exposure): White solid; Purity % ([2]; 40° C., 9 days, open exposure, listed as Free crystal form D): 97.3%; Color and character ([2]; 40° C., 15 days, open exposure): White solid; Purity % ([2]; 40° C., 15 days, open exposure, listed as Free crystal form D): 96.7%; Color and character ([2]; 40° C., 30 days, open exposure): White solid; Purity % ([2]; 40° C., 30 days, open exposure, listed as Free crystal form D): 95.8%; change in purity under 60° C. and light ([2]; 30 days): slight decrease in purity; Color and character ([2]; 60° C., 9 days, open exposure): White solid; Purity % ([2]; 60° C., 9 days, open exposure, listed as Free crystal form D): 96.6%; Color and character ([2]; 60° C., 15 days, open exposure): White solid; Purity % ([2]; 60° C., 15 days, open exposure, listed as Free crystal form D): 95.8%; Color and character ([2]; 60° C., 30 days, open exposure): White solid; Purity % ([2]; 60° C., 30 days, open exposure, listed as Free crystal form D): 93.9%; Color and character ([2]; 75% RH, 9 days, open exposure): White solid; Purity % ([2]; 75% RH, 9 days, open exposure, listed as Free crystal form D): 97.8%; Color and character ([2]; 75% RH, 15 days, open exposure): White solid; Purity % ([2]; 75% RH, 15 days, open exposure, listed as Free crystal form D): 97.7%; Color and character ([2]; 75% RH, 30 days, open exposure): White solid; Purity % ([2]; 75% RH, 30 days, open exposure, listed as Free crystal form D): 97.9%; Color and character [2, 4]: White solid; Purity % ([2]; 92.5% RH, 9 days, open exposure, listed as Free crystal form D): 97.8%; Color and character [2, 5]: White solid; Purity % ([2]; 92.5% RH, 15 days, open exposure, listed as Free crystal form D): 97.9%; Color and character [2, 6]: White solid; Purity % ([2]; 92.5% RH, 30 days, open exposure, listed as Free crystal form D): 97.8%; Color and character ([2]; Onset, 0 days): White solid; Purity % ([2]; Onset, 0 days, listed as Free crystal form D): 97.9%; physicochemical stability under high humidity ([2]; 30 days): good physicochemical stability; Color and character [2, 7]: White solid; Purity % ([2]; light 4500 Lux, 9 days, open exposure, listed as Free crystal form D): 97.3%; Color and character [2, 8]: White solid; Purity % ([2]; light 4500 Lux, 15 days, open exposure, listed as Free crystal form D): 96.8%; Color and character [2, 9]: White solid; Purity % ([2]; light 4500 Lux, 30 days, open exposure, listed as Free crystal form D): 95.4%; crystal form after influencing factor experiments ([2]; 30 days): remain unchanged; physical and chemical stability, long-term accelerated conditions [3]: good physical and chemical stability; Purity % 1 month ([3]; 25° C., 60% RH): 97.8%; Purity % 2 months ([3]; 25° C., 60% RH): 97.8%; Purity % 3 months ([3]; 25° C., 60% RH): 97.8%; Purity % 1 month ([3]; 40° C., 75% RH): 97.8%; Purity % 2 months ([3]; 40° C., 75% RH): 97.8%; Purity % 3 months ([3]; 40° C., 75% RH): 97.7%; Purity % 6 months ([3]; 40° C., 75% RH): 97.6%; Purity % Onset [3]: 97.9%

Q: With `N#Cc1ccc(N2CCC(Sc3ccc(COc4cccc5c4CN([C@H]4CCC(=O)NC4=O)C5=O)cn3)CC2)c(F)c1` [Crystal form E, (S)-4-(4-((5-(((2-(2,6-dioxopiperidin-3-yl)-1-oxoisoindolin-4-yl)oxy)methyl)pyridin-2-yl)thio)piperidin-1-yl)-3-fluorobenzonitrile] as the compound, how does the “Hygroscopic weight change 0.0% RH-95.0% RH” value [1] read?
A: 2.24%

Q: What about the “Hygroscopic weight change 20% RH-80% RH” value [1] of the same compound?
A: 0.84%

Q: And the “Hygroscopicity class (20% RH-80% RH)” value [1]?
A: (slightly hygroscopic)

Q: What about the “Crystal form after hygroscopicity test” value [1] of the same compound?
A: Untransformed

Q: What about the Color and character ([2]; 40° C., 9 days, open exposure) of the same compound?
A: White solid

Q: And the Purity % ([2]; 40° C., 9 days, open exposure, listed as Free crystal form E)?
A: 97.4%

Q: And the Color and character ([2]; 40° C., 15 days, open exposure)?
A: White solid

Q: What about the Purity % ([2]; 40° C., 15 days, open exposure, listed as Free crystal form E) of the same compound?
A: 97.0%

Q: And the Color and character ([2]; 40° C., 30 days, open exposure)?
A: White solid

Q: And the Purity % ([2]; 40° C., 30 days, open exposure, listed as Free crystal form E)?
A: 96.4%

Q: And the “change in purity under 60° C. and light” value ([2]; 30 days)?
A: slight decrease in purity

Q: What about the Color and character ([2]; 60° C., 9 days, open exposure) of the same compound?
A: White solid

Q: What about the Purity % ([2]; 60° C., 9 days, open exposure, listed as Free crystal form E) of the same compound?
A: 96.7%

Q: And the Color and character ([2]; 60° C., 15 days, open exposure)?
A: White solid

Q: What about the Purity % ([2]; 60° C., 15 days, open exposure, listed as Free crystal form E) of the same compound?
A: 95.9%

Q: And the Color and character ([2]; 60° C., 30 days, open exposure)?
A: White solid

Q: What about the Purity % ([2]; 60° C., 30 days, open exposure, listed as Free crystal form E) of the same compound?
A: 94.6%

Q: What about the Color and character ([2]; 75% RH, 9 days, open exposure) of the same compound?
A: White solid

Q: And the Purity % ([2]; 75% RH, 9 days, open exposure, listed as Free crystal form E)?
A: 97.9%

Q: What about the Color and character ([2]; 75% RH, 15 days, open exposure) of the same compound?
A: White solid

Q: And the Purity % ([2]; 75% RH, 15 days, open exposure, listed as Free crystal form E)?
A: 97.9%

Q: What about the Color and character ([2]; 75% RH, 30 days, open exposure) of the same compound?
A: White solid

Q: And the Purity % ([2]; 75% RH, 30 days, open exposure, listed as Free crystal form E)?
A: 97.8%

Q: And the Color and character [2, 4]?
A: White solid

Q: And the Purity % ([2]; 92.5% RH, 9 days, open exposure, listed as Free crystal form E)?
A: 97.9%

Q: And the Color and character [2, 5]?
A: White solid

Q: And the Purity % ([2]; 92.5% RH, 15 days, open exposure, listed as Free crystal form E)?
A: 97.8%

Q: What about the Color and character [2, 6] of the same compound?
A: White solid

Q: What about the Purity % ([2]; 92.5% RH, 30 days, open exposure, listed as Free crystal form E) of the same compound?
A: 97.8%

Q: And the Color and character ([2]; Onset, 0 days)?
A: White solid

Q: And the Purity % ([2]; Onset, 0 days, listed as Free crystal form E)?
A: 97.9%

Q: What about the “physicochemical stability under high humidity” value ([2]; 30 days) of the same compound?
A: good physicochemical stability

Q: And the Color and character [2, 7]?
A: White solid

Q: And the Purity % ([2]; light 4500 Lux, 9 days, open exposure, listed as Free crystal form E)?
A: 97.7%

Q: What about the Color and character [2, 8] of the same compound?
A: White solid

Q: And the Purity % ([2]; light 4500 Lux, 15 days, open exposure, listed as Free crystal form E)?
A: 97.4%

Q: What about the Color and character [2, 9] of the same compound?
A: White solid

Q: What about the Purity % ([2]; light 4500 Lux, 30 days, open exposure, listed as Free crystal form E) of the same compound?
A: 94.9%

Q: What about the “crystal form after influencing factor experiments” value ([2]; 30 days) of the same compound?
A: remain unchanged

Q: What about the “physical and chemical stability, long-term accelerated conditions” value [3] of the same compound?
A: good physical and chemical stability

Q: What about the “Purity % 1 month” value ([3]; 25° C., 60% RH) of the same compound?
A: 97.9%

Q: What about the “Purity % 2 months” value ([3]; 25° C., 60% RH) of the same compound?
A: 97.8%

Q: What about the “Purity % 3 months” value ([3]; 25° C., 60% RH) of the same compound?
A: 97.8%

Q: And the “Purity % 1 month” value ([3]; 40° C., 75% RH)?
A: 97.8%

Q: And the “Purity % 2 months” value ([3]; 40° C., 75% RH)?
A: 97.8%

Q: And the “Purity % 3 months” value ([3]; 40° C., 75% RH)?
A: 97.8%

Q: What about the “Purity % 6 months” value ([3]; 40° C., 75% RH) of the same compound?
A: 97.4%

Q: What about the “Purity % Onset” value [3] of the same compound?
A: 97.9%
